Measured values as given in patent US7419667B2, “Drug for cancer therapy” (Morinaga Milk Industry Co. Ltd., priority 2004, dated 2008).

System: human Burkitt lymphoma Raji cells
Assay: Test Example 5: effect on cytotoxic activity of rituximab and complement, PI flow cytometry (FIG. 1)
Format: cell-based
Details: rituximab + 10% human normal serum (AB type), sample 1.0 mg/ml final, 1 hour
Text: The lactoferrin hydrolysate mixture prepared in Preparation Example 1 was used as Sample A, and the lactoferrin hydrolyzed peptide (lactoferrin partial peptide) prepared in Preparation Example 2 was used as Sample B. Moreover, as control samples, commercially available bovine lactoferrin (Morinaga Milk Industry Co., Ltd.) was used as Control A, and protamine sulfate was used as Control B.
Raji cells in the logarithmic growth phase were used as target cells. Raji cells collected by centrifugation of a cell suspension were suspended in fresh culture broth (RPMI 1640, 10% FCS), counted and then added to a 24-well plate in an amount of 1.0×10^5 cells/well. To each well, rituximab ([…]) and 1.0 mg/ml as a final concentration of Sample A, Sample B, Control A or Control B (or Medium [culture broth] instead of the sample) were added, and then human normal serum (AB type) was added at a final concentration of 10%. Then, the cells were cultured in a CO2 incubator for 1 hour, and PI (propidium iodide, 1 mg/ml) was added during the last 15 minutes of the culture. […] The Raji cells that died during the culture were counted by analyzing the suspension with a flow cytometer (FACScan) utilizing the fact that dead cells are positive in the nuclear staining with PI.
In this test, the cytotoxic activity was calculated in accordance with the following equation. […]

Question: For protamine sulfate [Control B], which “cytotoxic activity [number of dead cells (%)] relative to Medium (culture broth)” value is on record?
Answer: Its value is “such increase of the activity was not observed”.
